This note sets out measurements from ChEMBL document CHEMBL4130353, “2-Substituted 3,7,8-trimethylnaphtho[1,2-b]furan-4,5-diones as specific L-shaped NQO1-mediated redox modulators for the treatment of non-small cell lung cancer” (Eur J Med Chem, 2017).

≈ marks a conversion by molar mass, not a printed value. Calls of active or inactive are those of the source. The rule behind the calls is not given here. Where only a bound is given, the exact number is not on record here.

The nature of data set [1]: Lipophilicity, log D of the compound at pH 7.4. Type of data set: physicochemical. The following applies: buffer.
Data set [2] can be described thus: Effective permeability of the compound at pH 7.4 by PAMPA assay. In kind it is ADME. The settings on record: read-out: Peff. On the technique in general: PAMPA measures passive passage across an artificial lipid membrane.
A short description of data set [3]: Solubility of the compound in diluted HCl buffer at pH 3. Type of data set: physicochemical.
Data set [4] addresses T1, NADPH--cytochrome P450 reductase (Homo sapiens, UniProt P16435).
T1 sequence (P16435 whole entry): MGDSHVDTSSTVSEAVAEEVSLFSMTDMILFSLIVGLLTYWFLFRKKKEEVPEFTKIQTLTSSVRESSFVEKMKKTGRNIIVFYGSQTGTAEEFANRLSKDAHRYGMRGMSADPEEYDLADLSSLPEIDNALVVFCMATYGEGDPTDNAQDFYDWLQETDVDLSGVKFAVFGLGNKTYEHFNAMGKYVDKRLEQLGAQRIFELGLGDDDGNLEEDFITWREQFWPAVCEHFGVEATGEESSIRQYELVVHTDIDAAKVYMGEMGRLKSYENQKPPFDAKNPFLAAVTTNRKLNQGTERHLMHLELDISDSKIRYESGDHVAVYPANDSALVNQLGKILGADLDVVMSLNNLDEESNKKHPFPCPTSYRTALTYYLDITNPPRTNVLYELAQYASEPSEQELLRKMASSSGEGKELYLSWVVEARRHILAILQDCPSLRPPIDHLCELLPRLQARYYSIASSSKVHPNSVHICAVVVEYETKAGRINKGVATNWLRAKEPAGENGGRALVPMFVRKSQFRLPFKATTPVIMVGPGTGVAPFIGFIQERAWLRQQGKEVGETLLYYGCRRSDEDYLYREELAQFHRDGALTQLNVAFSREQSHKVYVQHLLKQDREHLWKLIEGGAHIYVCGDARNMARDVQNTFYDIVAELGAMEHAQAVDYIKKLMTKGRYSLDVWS
Description: Substrate activity at human CPR expressed in baculovirus expression system assessed as reduction rate by measuring umol of NADPH utilized per umol of enzyme at 10 uM preincubated for 3 mins followed by NADPH addition measured at 2 secs interval for 5 mins by UV-Vis spectroscopy. In kind it is ADME.

The nature of data set [5]: Intrinsic solubility of the compound. Type of data set: physicochemical. The settings on record: read-out: Intrinsic_solubility.
Data set [6] deals with NAD(P)H dehydrogenase [quinone] 1 (Homo sapiens) (UniProt P15559). Put plainly: Substrate activity at recombinant human NQO1 expressed in Escherichia coli assessed as reduction rate by measuring umol of NADPH utilized per umol of enzyme at 10 uM preincubated for 3 mins followed by NADPH addition measured at 2 secs interval for 5 mins by UV-Vis spectroscopy.
Sequence of NAD(P)H dehydrogenase [quinone] 1 (Homo sapiens) (P15559 whole entry): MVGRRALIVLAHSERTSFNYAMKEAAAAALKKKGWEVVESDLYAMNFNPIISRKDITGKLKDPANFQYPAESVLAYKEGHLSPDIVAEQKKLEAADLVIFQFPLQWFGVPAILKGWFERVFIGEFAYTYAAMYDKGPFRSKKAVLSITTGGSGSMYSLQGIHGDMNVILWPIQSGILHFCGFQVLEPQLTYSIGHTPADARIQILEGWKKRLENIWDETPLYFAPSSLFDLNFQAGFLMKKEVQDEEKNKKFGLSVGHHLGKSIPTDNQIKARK
For a further data set, the species on record is Homo sapiens. Put plainly: Selectivity ratio for substrate activity at recombinant human NQO1 to substrate activity at human CPR.
The next data set deals with A549/TR. Put plainly: Cytotoxicity against human A549/TR cells assessed as cell growth inhibition preincubated for 24 hrs followed by compound washout measured after 72 hrs by MTT assay. In kind it is functional, cell-based. On the technique in general: Tetrazolium assays rely on reduction of a dye to a coloured formazan, in cell work by metabolically active cells.
Data set [7] concerns A549. Put plainly: Antitumor activity against human A549 cells xenografted in athymic nude mouse assessed as tumor growth inhibition at 30 mg/kg, iv administered every other day for 3 weeks measured every day during compound dosing relative to control. Type of data set: functional. The following applies: 504 h, read-out: TGI. For orientation: Xenograft models place foreign cells or tissue in a host animal.

In a further data set the test system is L02. Description: Induction of intracellular ROS levels in human L02 cells at 10 uM after 1 to 3 hrs by DCFH-DA-based flow cytometry. The settings on record: l02, 10 µM. Type of data set: cell-based.
In data set [8] the test system is A549. Description: Antitumor activity against human A549 cells xenografted in athymic nude mouse assessed as tumor growth inhibition at 50 mg/kg, iv administered every other day for 3 weeks measured every day during compound dosing relative to control. Type of data set: functional. The following applies: 504 h, read-out: TGI.
The target in data set [9] is NAD(P)H dehydrogenase [quinone] 1 (Homo sapiens) (UniProt P15559). Description: Substrate activity at NQO1 in human A549 cells assessed as induction of enzyme-catalyzed ROS production at 10 uM after 1 to 3 hrs by DCFH-DA-based flow cytometry. Type of data set: cell-based.
For data set [10] the target is unchanged. Description: Substrate activity at NQO1 in human A549 cells assessed as induction of enzyme-catalyzed lipid peroxidation by measuring MDA equivalents per protein at 10 uM after 24 hrs by TBARS assay. In kind it is cell-based.
The species entered for the next data set is Danio rerio. Put plainly: Hepatotoxicity in 48 hrs post fertilized transgenic liver zebrafish larvae model expressing LFABP:EGFP protein at 1 uM measured after 48 hrs post dose by fluorescence based assay. In kind it is organism-based. The following applies: in vivo.

The logD is lipophilicity at a set pH, counting ionised and neutral species. A high value points to a more lipophilic compound. Turning to `Cc1cc2c(cc1C)-c1oc(CNc3cccc(F)c3)c(C)c1C(=O)C2=O`, the logD in data set [1] was 4.21. The Papp in [2] amounted to 66.2 ×10⁻⁶ cm/s. For the same compound, the solubility in data set [3] was 100 to 500 µg/mL (≈ 275 to 1380 µM); in data set [5], 51.2 µg/mL (≈ 141 µM). Moreover, the Activity in data set [4] was 112 µmol NADPH/min/µmol enzyme; in data set [6] it was 1340 µmol/min. Also, the Selectivity ratio in the data set filed under Homo sapiens came out at 12.

Consider `Cc1cc2c(cc1C)-c1oc(CNc3ccc(Cl)cc3Cl)c(C)c1C(=O)C2=O`, for which the Activity in [6] came out at 1060 µmol/min.

For the compound `Cc1cc2c(cc1C)-c1oc(CNc3ccc(Cl)c(Cl)c3)c(C)c1C(=O)C2=O`, the Activity in data set [6] was found to be 847 µmol/min.

Consider `Cc1cc2c(cc1C)-c1oc(CN3CCN(Cc4ccccc4)CC3)c(C)c1C(=O)C2=O`, for which, in [6], the Activity is 1190 µmol/min.

`Cc1cc2c(cc1C)-c1oc(C(=O)NCc3ccc(F)cc3)c(C)c1C(=O)C2=O`: in [6], the Activity stood at 1290 µmol/min.

Usually IC50 stands for the midpoint of a concentration-inhibition curve. For the compound `CC(=O)O[C@H]1C(=O)[C@@]2(C)[C@H]([C@H](OC(=O)c3ccccc3)[C@]3(O)C[C@H](OC(=O)[C@H](O)[C@@H](NC(=O)c4ccccc4)c4ccccc4)C(C)=C1C3(C)C)[C@]1(OC(C)=O)CO[C@@H]1C[C@@H]2O` [PACLITAXEL], in the data set on A549/TR, the IC50 was 28 µM.

`COc1ccccc1NCc1oc2c(c1C)C(=O)C(=O)c1cc(C)c(C)cc1-2`: the Activity in data set [6] is 1040 µmol/min.

As for `Cc1cc2c(cc1C)-c1oc(CNc3ccc(F)cc3F)c(C)c1C(=O)C2=O`, the Activity in data set [6] worked out at 1180 µmol/min.

For the compound `Cc1cc2c(cc1C)-c1oc(C(=O)N3CCN(Cc4ccccc4)CC3)c(C)c1C(=O)C2=O`, the logD in [1] came out at 4.82. The Papp in data set [2] worked out at 11.9 ×10⁻⁶ cm/s. Also, the solubility in [3] is 100 to 500 µg/mL (≈ 226 to 1130 µM); in [5], 41.1 µg/mL (≈ 92.9 µM). Besides, the values for the Activity in data set [4] and in data set [6] were 90 µmol NADPH/min/µmol enzyme and 1360 µmol/min, respectively. For the same compound, in the data set listed under Homo sapiens, the Selectivity ratio was determined as 15.1.

In the case of `Cc1cc2c(cc1C)-c1oc(CN3CCN(c4ccccc4)CC3)c(C)c1C(=O)C2=O`, the Activity in data set [6] is 1050 µmol/min.

As to `Cc1cc2c(cc1C)-c1oc(CNc3ccc(C#N)cc3)c(C)c1C(=O)C2=O`, the Activity in data set [6] was 898 µmol/min.

`Cc1cc2c(cc1C)-c1oc(CNCc3ccc(F)cc3)c(C)c1C(=O)C2=O`: the Activity in data set [6] stood at 1200 µmol/min.

On to `Cc1cc2c(cc1C)-c1oc(C(=O)Nc3ccc(F)cc3)c(C)c1C(=O)C2=O`, for which, in [6], the Activity amounted to 1260 µmol/min.

Turning to `COc1cccc(NCc2oc3c(c2C)C(=O)C(=O)c2cc(C)c(C)cc2-3)c1`, the Activity in data set [6] was 955 µmol/min.

`CC1(C)CCC2=C(O1)c1ccccc1C(=O)C2=O` [LAPACHONE]: the inhibition in vivo at 30 mg/kg in the data set with A549 [7] came to 78.5%. For the same compound, the Papp in [2] stood at 46.4 ×10⁻⁶ cm/s. In addition, the values for the Activity entry (with L02; in [10]; in the data set filed under Danio rerio) were “Toxic”, 15.9 nmol/mg and “Toxic”, respectively. The inhibition in vivo at 50 mg/kg with A549 [8] turned out to be 84.9%. Moreover, the outcome in data set [9] was Active. Besides, the solubility in [3] was less than 100 µg/mL; in data set [5], 38 µg/mL (≈ 157 µM).

`COc1ccc(NCc2oc3c(c2C)C(=O)C(=O)c2cc(C)c(C)cc2-3)cc1`: the Activity in [6] is 1120 µmol/min.

Regarding `Cc1cc2c(cc1C)-c1oc(CNc3ccc(F)cc3C)c(C)c1C(=O)C2=O`, the logD in data set [1] turned out to be 3.31. Also, the figures for the solubility in data set [3] and in data set [5] were less than 100 µg/mL and 33.1 µg/mL (≈ 87.7 µM), respectively. The values for the Activity in [4] and in [6] were 127 µmol NADPH/min/µmol enzyme and 1320 µmol/min, respectively. Further, the Selectivity ratio in the data set listed under Homo sapiens is 10.3.

As to `Cc1cc2c(cc1C)-c1oc(CNc3ccc(Br)cc3)c(C)c1C(=O)C2=O`, in data set [6], the Activity was 1150 µmol/min.

`Cc1cc2c(cc1C)-c1oc(CNc3ccc(F)cc3)c(C)c1C(=O)C2=O` registered a logD in data set [1] of 4.03. The Papp in [2] turned out to be 42 ×10⁻⁶ cm/s. For the same compound, the solubility was 100 to 500 µg/mL (≈ 275 to 1380 µM) in [3] and 48.5 µg/mL (≈ 133 µM) in data set [5]. For the same compound, the Activity in [4] was 105 µmol NADPH/min/µmol enzyme; in data set [6], 1330 µmol/min. In the data set filed under Homo sapiens, the Selectivity ratio came to 12.7.

Turning to `Cc1cc2c(cc1C)-c1oc(CNc3ccc(F)c(Cl)c3)c(C)c1C(=O)C2=O`, the Activity in data set [6] was determined as 940 µmol/min.

Turning to `Cc1cc2c(cc1C)-c1oc(CN3CCN(c4ccc(F)cc4)CC3)c(C)c1C(=O)C2=O`, in [1], the logD worked out at 2.89. The Papp in [2] was found to be 28.3 ×10⁻⁶ cm/s. Moreover, the figures for the solubility in [3] and in data set [5] were 500 to 1000 µg/mL (≈ 1160 to 2310 µM) and 151 µg/mL (≈ 349 µM), respectively. In addition, the Activity is 159 µmol NADPH/min/µmol enzyme in [4] and 1460 µmol/min in data set [6]. In addition, the Selectivity ratio in the data set filed under Homo sapiens was 9.19.

Compound `Cc1cc2c(cc1C)-c1occ(C)c1C(=O)C2=O` returned a log distribution coefficient (logD) in [1] of 3.65. The Papp in data set [2] worked out at 43.1 ×10⁻⁶ cm/s. For the same compound, the solubility in [3] was less than 100 µg/mL; in data set [5] it was 28.6 µg/mL (≈ 119 µM). For the same compound, the Activity in [4] is 142 µmol NADPH/min/µmol enzyme.

Regarding `Cc1cc2c(cc1C)-c1oc(C(=O)N3CCN(c4ccc(F)cc4)CC3)c(C)c1C(=O)C2=O`, the Activity in data set [6] was found to be 1190 µmol/min.
